In PubChem BioAssay (NCI) one finds GI50 and TGI data, which are given here for 37 molecules.

Values joined by “and” are separate entries in the source; they are usually repeats but may differ in a detail not shown here. Identical values can stand only once.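 The compound was tested at five concentrations on cells cultured in 96-well plates, with a 48-hour exposure period. GI50 is the concentration that inhibits growth by half. TGI: concentration producing complete growth inhibition.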

The assay concerns MDA-MB-468 breast. Put plainly: NCI-60 cell line screen, 48 h.
Consider `Cc1cc(NCCCNc2ccnc3cc(Cl)ccc23)nc(Nc2ccc(C(=O)N3CCCCC3)cc2)n1`, for which the GI50 is 2330 nM and the TGI came to 4690 nM. As to `Nc1c(C(=O)c2cccc(C(O)(CO)CO)c2)cnn1-c1ccc(F)cc1`, the GI50 is > 25000 nM and the TGI is > 25000 nM. For the molecule `CC/C=C\C[C@H](O)C/C=C1/C(=O)C=C[C@@H]1C/C=C\CCCC(=O)OCCS(=O)(=O)c1ccccc1`, the GI50 is 2280 nM and the TGI worked out at 6830 nM. The corresponding values for `O=C1C2=C(C(=O)c3c(O)ccc(O)c31)N(c1cccnc1)Cc1ccccc1O2` are 175 nM and 458 nM. The corresponding values for `COc1ccccc1CN=C1NC(=O)/C(=C/c2ccc3ncccc3c2)S1` are 3350 nM and > 25000 nM.

Turning to `O=c1ncc(I)c[nH]1`, the GI50 was > 100000 nM and the TGI was > 100000 nM.

As for `COc1ccc(NC(=O)COc2ccccc2)c(C(N)=O)c1`, the GI50 was 453 nM and the TGI was > 62800 nM.

As for `COc1cc(-c2nn(-c3ccc(NC(=O)Nc4ccc(Cl)c(C(F)(F)F)c4)cc3)cc2-c2ccncc2)ccc1Cl`, the GI50 was 1390 nM and the TGI is 3230 nM. The corresponding values for `C/C(=N\NC(=O)c1cccc(S(=O)(=O)N2CCN(C)CC2)c1)c1cc(Cl)ccc1O` are 402 nM and 3870 nM. For `C=C(C)[C@@H]1CC[C@]2(C(=O)N3CCN(C)CC3)CC[C@]3(C)[C@H](CC[C@@H]4[C@@]5(C)C/C(=C/c6ccncc6)[C@H](O)C(C)(C)[C@@H]5CC[C@]43C)[C@@H]12` the same measures were 5450 nM and 26100 nM.

As to `Cc1c(C)n(CC(O)CNC2CCCCC2C)c2ccccc12` (stereo unspecified), the GI50 was 9210 nM and the TGI came to 23000 nM. For `COc1cc(/C=C/C(=O)c2ccc(F)cc2)ccc1OCCCCOc1cc2c(cc1OC)C(=O)N1CCCC1C=N2` (stereo unspecified) the same measures were 1710 nM and 3590 nM. For `Oc1ccccc1/C=N/Nc1nc2ccccc2s1` the same measures were 2510 nM and 60700 nM. `CC(C)C[C@H](NC(=O)[C@H](Cc1ccccc1)NC(=O)c1cnccn1)B(O)O`: the GI50 was < 10 nM and 1.9 nM; the TGI was < 10 nM and 5.2 nM. On to `CCN(CC)c1ccc(CNc2cc(C)nc3ccc(OC)cc23)cc1`, for which the GI50 was 1020 nM and the TGI turned out to be 2630 nM. For `N#Cc1c(N)n(C2OC(CO)C(O)C2O)c2ncnc(N)c12` (stereo unspecified) the same measures were 17.3 nM and 34.9 nM. The corresponding values for `O=C(Nc1ccc(-n2ccc3c(NC(=O)c4ccccc4)ncnc32)cc1)Nc1ccc(Cl)c(C(F)(F)F)c1` are 1440 nM and 3320 nM. For `COc1ccc(-c2c(-c3cc4c(c(OC)c3OC)OCO4)noc2N)cc1`, the GI50 was 192 nM. As for `O=C(NCCN1CCOCC1)Nc1nc2ccc(Sc3nnc4ccc(-c5ccc(F)cc5)nn34)cc2s1`, the TGI is > 29300 nM.

Consider `COc1ccc(Nc2[nH]n(C3=Nc4ccccc4Sc4ccccc43)c(=O)c2C#N)cc1`, for which the GI50 was 382 nM and the TGI was found to be 2810 nM. Take `CS(=O)(=O)c1nccc(-c2c(-c3cccc(OCc4ccccc4)c3)nc3sccn23)n1`: the GI50 was 1410 nM and the TGI worked out at 3000 nM.

For the molecule `CCCCCCCC(=O)SCC/C=C/[C@@H]1CC(=O)NCc2cccc(n2)C2=N[C@@](C)(CS2)C(=O)N[C@@H](C(C)C)C(=O)O1`, the GI50 is 107 nM and the TGI is > 33300 nM. The corresponding values for `COc1ccc2c(c1)O/C(=C\c1ccc([N+](=O)[O-])o1)C2=O` are 519 nM and 2260 nM. The corresponding values for `COc1ccc2[nH]cc(/C=N/Nc3ccnc4cc(Cl)ccc34)c2c1` are 1130 nM and 2600 nM. For `COc1ccc(C(=O)OC2C(OC3C(O)COC(O[C@H]4C[C@H]5[C@@H]6CC=C7C[C@@H](O)CC[C@]7(C)[C@H]6CC[C@]5(C)[C@H]4[C@H](C)C(=O)CCC(C)C)C3OC(=O)C(C)C)OCC(O)C2O)cc1` (stereo partly specified) the same measures were 58.3 nM and 3550 nM. Take `O=C(/C=C/c1ccccc1)Nc1ncc(Cc2ccccc2)s1`: the GI50 was 416 nM and the TGI was > 100000 nM. The corresponding values for `CC[C@]12C=CCN3CC[C@@]4(c5ccc(OC)cc5N(C)[C@H]4[C@@](O)(C(=O)OC)[C@@H]1OC(=O)CCCC[P+](c1ccccc1)(c1ccccc1)c1ccccc1)[C@@H]32` are 195 nM and 575 nM.

Take `COc1ccc(/C=C(/C(=O)N2CCN(c3ccc(C)cc3)CC2)c2cc(OC)c(OC)c(OC)c2)cc1N`: the GI50 was 224 nM. For `Cc1ccc(C(=O)Nc2ccc(CN3CCN(C)CC3)c(C(F)(F)F)c2)cc1C#Cc1cnc(N)c2ccc(C#N)cc12`, the GI50 is 156 nM and the TGI amounted to 9630 nM. On to `c1cc2c(cc1NC1=NCCO1)CCCC2`, for which the GI50 was 6180 nM and the TGI was 24800 nM.

On to `OC1CCN(CCCOc2c3ccccc3nc3c2oc2ccccc23)CC1`, for which the GI50 was 1760 nM and the TGI is 4910 nM. Regarding `COc1ccc2nc(-c3ccc(Cl)cc3)cc(-c3nnc(SCC(=O)Nc4ccc(/C(C)=N\O)cc4)o3)c2c1`, the GI50 was 1380 nM and the TGI worked out at 3580 nM.

For the molecule `CN(C)c1ccc(/C=N/NC(=O)CSc2nc3sc4c(c3c(=O)n2-c2ccccc2)CCCCC4)cc1`, the GI50 is 3850 nM and the TGI was > 100000 nM. With `COc1ccc(C2CC(c3ccc4ccccc4c3)=NN2/C=C2\SC(=S)N(NC(=O)Cc3ccccc3Nc3c(Cl)cccc3Cl)C2=O)cc1` (stereo unspecified), the GI50 was 544 nM and the TGI was > 34200 nM.

On to `Cc1ccccc1NC(=O)N/C(N)=N/c1nc(C)c(C)s1`, for which the GI50 is 224 nM and the TGI came to 788 nM. On to `OCCNC(=S)Nc1ccc(-c2nc(N3C[C@H]4CC[C@@H](C3)O4)c3cccn3n2)cc1`, for which the GI50 is 17.4 nM and the TGI is 289 nM. For the molecule `O=c1[nH]ccc2nc(N3CCC(O)CC3)nc(Nc3ccc(N4CCOCC4)cc3)c12`, the GI50 was 43200 nM and the TGI was > 100000 nM.
